The test system of this test is triple-negative breast tumors. In words: Cisplatin treatment of patients with triple-negative breast tumors, response by Miller-Payne score (GSE28330; Cisplatin-1 and Cisplatin-2 trials). Type of test: in vivo, human. The procedure: Two publically available data sets from clinical trial of Cisplatin treatment of patients with triple-negative breast tumors [GSE28330 GEO database][59] were processed and the number of LST_10 Mb was calculated for each tumor with good quality of measured profile. Genomic profiles were measured by two types of chip: Affymetrix Oncoscan 70K (Dataset 2) and Oncoscan 300K (Dataset 1). Information about mutational status of BRCA1/2 was available for some tumors. Response to treatment was measured by Miller-Payne score, where 4 and 5 were considered as “positive response”, while scores <4 were considered as “no response” [59] Case by case and summary results are presented in Table 2 and Tables 3-5 (statistical comparisons were performed by the Fisher exact test).
(i) TCGA cohort: 467 tumors with high quality SNP-array profile and available normal/tumor exome sequencing results in variant call format (vcf) from the TCGA Breast Invasive carcinoma dataset were used. (ii) In-house TNBC cohort: a series of 104 TNBC enriched in BRCAi germline mutated cased. (iii) the publically available data from Cisplatin-1 and Cisplatin-2 clinical trials cohorts: 54 TNBCs with suitable quality of Oncoscan (Affymetrix) array profile were obtained from public GEO repository GSE28330 (66).
HRD is linked to the response to platinum based chemotherapy. Birkbak et al. analyzed SNParray profiles from a series of 79 patients with TNBC, including 28 patients treated by cisplatin prior to surgery (Cisplatin-1 trial) and 51 patients treated with cisplatin in addition to bevacizumab (Cisplatin-2 trial) (59).

In the case of `N.N.[Cl][Pt][Cl]` [Cisplatin, cisplatin], the “Non Responders (number of tumors)” value by setting is: (BRCA1/2 inactivated tumors) 8; (NON BRCA1/2 or NA tumors) 27. Besides, the “Responders (number of tumors)” value reads like this: (BRCA1/2 inactivated tumors) 9; (NON BRCA1/2 or NA tumors) 10. Further, the “Miller Payne Response Score 4 (CR), number of tumors” value by setting is: (LST^hi tumors) 7; (LST^lo tumors) 1. In addition, the “Miller Payne Response Score 5 (pCR), number of tumors” value (LST^hi tumors) is 11 and the “Miller Payne Response Score 5 (pCR), number of tumors” value (LST^lo tumors) came out at 0. The “Non Responders (Miller-Payne 0-3), number of tumors” value is, setting by setting: (LST_high tumors) 15; (LST_low tumors) 20. The “Responders (Miller-Payne 4-5), number of tumors” value is, setting by setting: (LST_high tumors) 18; (LST_high tumors, listed as cisplatin) 18/33; (LST_low tumors) 1; (LST_low tumors, listed as cisplatin) 1/21.

For the origin of these results see patent US11149316B2, “Methods for detecting inactivation of the homologous recombination pathway (BRCA1/2) in human tumors” (INSTITUT CURIE, priority 2013, dated 2021).
